Measured values reported in a melting point compilation (Tetko et al.; mined from patent text by program, amines drawn as free bases though some values may be those of a salt).

Compound	melting point
CCCC1OC(C(=O)OC)CC2=C1C(=O)c1ccccc1C2=O (stereo not given)	112 to 114 °C
CCc1cc2c(c(Sc3ccccc3)cc(=O)n2Cc2ccc(C(=O)O)cc2)c(CC)n1	260 to 262 °C
COC(=O)c1cc2c(C)ccc(C)c2n1OC	90 to 91 °C
COC(=O)C[C@@H]1C(=O)NC[C@H](Cc2cc(F)ccc2OC)C(=O)N1S(=O)(=O)c1ccc(Cl)cc1	73 to 76 °C
Cc1nc2cc3c(cc2c(=O)n1COC(=O)C(C)(C)C)CCC3	128 °C
FC(F)(F)c1cccc(C(Cl)=Nc2nc(C(F)(F)F)c(I)s2)c1	136 to 137 °C
CCCc1ccc2nc(C(F)(F)F)c(S(=O)(=O)N=CN(C)C)n2n1	219 to 220 °C
CC(C)Sc1cc([Si](C)(C)C)oc1C(=O)Nc1nnn[nH]1	181 to 182 °C
CN(C(=O)c1ccccn1)c1cc(F)cc(F)c1	102 to 104 °C
CS(=O)(=O)c1ccc(-c2cc(Cl)ccc2OCC(=O)O)cc1Cl	140 to 142 °C
Cc1cc(Cc2cc(C)c(N)c(C)c2)cc(C)c1N	119 to 120 °C
CCCCn1nc(C)c(CC(=O)O)c1C	97 to 98 °C
CN(C)c1ccc2c(c1)C(=O)CC(c1ccc(O)cc1)=N2	321 to 323 °C
Cn1ncnc1COc1nc2c(cc1CC(C)(C)C)nnn2-c1ccccc1F	130 to 133 °C
N#CC[C@H](NC(=O)c1ccc2ccccc2c1)C(=O)O	95 to 100 °C
COc1cccc2c(C3CCN(C(=O)OC(C)(C)C)CC3)noc12	130 to 132 °C
C#CC1(c2ccc(OC)c(OC3CCCC3)c2)CC(=O)C1	58 to 59 °C
O=C1NCCC[C@@H]1NS(=O)(=O)c1ccccc1F	180 to 183 °C
CC(C)C(=O)NC(=O)N1C(=O)Cc2cc(Cl)ccc21	139 to 141 °C
CCOC(=O)c1ccc(COc2cccc(NC(C)=O)c2C=O)cc1	116 to 119 °C
COC(=O)CCCNC(=O)C[C@H]1O[C@H](c2cccc(OC)c2OC)c2cc(Cl)ccc2N(CC(C)(C)C)C1=O	74 to 75 °C
Nc1nnc(-c2ccc3ncn(-c4cc(C(F)(F)F)ccc4Cl)c3c2)o1	288 to 289 °C
NS(=O)(=O)c1ccc(-n2nc(C(F)F)cc2-c2nc3ccc(Cl)cc3s2)cc1	242 to 244 °C
CCCCCCCCCCCCC1(CCCCCCCCCCCC)c2cc(Br)ccc2-c2ccc(Br)cc21	49 to 50 °C
N#CC(C(=O)NCc1ccccc1)C(=O)c1nn(-c2ccc(F)cc2)c2c1CSc1ccc(Cl)cc1-2 (stereo not given)	216 to 218 °C

Compound	melting point
O=C(Nc1cc(Cl)c([N+](=O)[O-])cc1O)c1ccccc1	< 250 °C
COCCNC(=O)c1ccc(C(=O)N2CCN(c3ncccc3NC(C)C)CC2)cc1	120 to 121 °C
CCCn1c(=O)c2[nH]c([C@@H](C)Cc3ccccc3)nc2n(CCC)c1=O	141 to 142 °C
COC(=O)c1ccc(/C=C/c2ccc(SC)cc2)nc1	157 to 159 °C
Cc1ccc2c(c1)c(Cl)c(C#N)c(=O)n2Cc1ccccc1	219 °C
O=[N+]([O-])c1ccc(Oc2c(Cl)cc(C(F)(F)F)cc2Cl)cc1SCc1ccccc1	207 °C
CCCN(CCC)CCCC1CCN(CCNC(=O)N2c3cc(C)ccc3C(=O)Nc3cccnc32)CC1	195 °C
COc1ccc(-n2nc(-c3c(-c4ccccc4)nn4ccccc34)ccc2=O)cc1	158 °C
COC(=O)c1ccccc1CS(=O)(=O)N=c1nc2nc(OC)cc(OC)n2s1	153 to 154 °C
O=Cc1cc(-c2ncco2)ccc1Br	100 to 104 °C
CN(C)CC(O)CC1(O)c2ccccc2CCc2ccccc21 (stereo not given)	144 to 146 °C
CC(C)NC(=O)N1CCc2cc(S(=O)(=O)N3CC(c4ccccc4)NC3=O)ccc21 (stereo not given)	120 to 122 °C
CCc1nc2cc(N3CCN(C)CC3)nc(CC)n2n1	87 to 88 °C
CC(=C1SC(=O)NC1=O)c1cccc(OCCOc2c(-c3ccc(F)c(F)c3)n(C)c3ccccc3c2=O)c1	236 to 240 °C
CCC1(CCCN2CCN(c3cccc(Cl)c3)CC2)C(=O)Nc2ccccc21 (stereo not given)	119 to 120 °C
COc1cc(NC(=O)Nc2c(-c3ccccc3C)c3cc(C)c(C)cc3oc2=O)cc(OC)c1OC(C)=O	238 to 240 °C
O=C1CCCN1CCCC(=O)N1CCC(C2c3ncc(Br)cc3CCc3cc(Cl)cc(Br)c32)CC1 (single isomer, unassigned; (+))	127 to 128 °C
CNC(=O)C(=O)CCCCCCSc1ccc2ccccc2c1	94 to 95 °C
CNC(=O)[C@H](NC(=O)c1ccc(F)cc1C(F)(F)F)[C@@H](CNC(C)=O)c1ccccc1 (racemic)	199 °C
CNC(=O)C1Cc2c(n(C)c3ccc(OC)cc23)C1 (stereo not given)	164 to 165 °C
Cc1c(-c2ccccc2)oc2c(S(=O)(=O)Cl)cccc2c1=O	165 to 170 °C
O=C(O)c1c(F)cc(F)c(F)c1NCc1ccccc1	140 to 141 °C
O=C1c2ccccc2C(=O)N1C1CC=CCC1 (stereo not given)	114 °C
COCc1cnc2c(NC(=O)c3c(Cl)cccc3Cl)cccc2c1Cl	177 °C
CN1C(=S)N(c2ccc(C#N)c(C(F)(F)F)c2)C(=N)C1(C)C	173 to 174 °C

Compound	melting point
COCCOCn1cc(C(=O)NCc2ccc(Cl)cc2)c(=O)c2cc(CN3CCOCC3)ccc21	150 to 152 °C
CN1C(=O)CCC1(O)c1ccc(Cl)c(S(=O)(=O)NCCc2ccccc2)c1 (stereo not given)	149 to 153 °C
CCCNC(=S)NCCC1Cc2ccc(-c3ccc(=O)[nH]n3)cc2C1 (stereo not given)	155 to 157 °C
CN(C)c1ccc2nc(N)c(C#N)c(Cl)c2c1	285 °C
CS(=O)c1c(C=NO[Si](C)(C)C(C)(C)C)nn(-c2c(Cl)cc(C(F)(F)F)cc2Cl)c1N (stereo not given)	150 to 154 °C
CCc1c(-c2ccc(O)cc2)c2cc(C(C)=O)c3cc(O)cc1n32	274 to 275 °C
CC1=CC(=O)C(=NNc2ccc(C#N)cc2)C(=O)O1	300 °C
COc1ccc(-c2cc(=O)c3c(O)c(I)c(OC)cc3o2)cc1	205 to 207 °C
N#Cc1ccc(Cl)cc1OCC(O)CNc1ccccc1OC1CC=NNC1=O (stereo not given)	156 to 158 °C
CC(C)(C)OC(=O)NC1CCCCCC=CC2CC2(C(=O)NS(=O)(=O)C2CC2)NC(=O)C2CC(OC(=O)c3ccc(Cl)c(F)c3)CN2C1=O (stereo not given)	147 to 149 °C
CCCCN1C(=O)N(C2CCN(CC3CCCCC3)CC2)C(c2ccccc2)c2ccccc21 (stereo not given)	115 to 117 °C
Cc1cc2[nH]c(=O)c(=O)[nH]c2cc1C	> 250 °C
CS(=O)(=O)c1ccc(C(CC2CCCCC2)C(=O)O)cc1 (stereo not given)	139 to 143 °C
Nc1ccc(NC(=O)NCc2ccc3c(c2)CN(C2CCC(=O)NC2=O)C3=O)cc1 (stereo not given)	> 400 °C
COC(=O)CC(C#N)Cc1ccc(Cl)cc1Cl (stereo not given)	86 to 88 °C
NC(CCCCCCCCC(N)=NO)=NO	182 °C
COc1cc(C=CC(=O)Nc2c(C)nc3c(C)cc(C)cc3c2-c2ccccc2Cl)cc(OC)c1OC(C)=O	225 to 226 °C
CC(C)Oc1ccc(CCCO)c(Oc2ncc(C(F)(F)F)cc2Cl)c1	72 to 73 °C
ClCc1coc(/C=C/c2ccccc2)n1	72 to 73 °C
O=C(O)CCCCN(C(=O)c1ccc(Cl)cc1)c1ccc2c(c1)CCC2	132 to 134 °C
Cn1c2c(c3cccc(F)c31)C(=O)CCC2	126 to 128 °C
CCC(OC)c1c(Br)c(Oc2ncnc3[nH]nnc23)c(OC)c(C)c1C(C)C (stereo not given)	149 to 150 °C
COc1cc(C)ccc1-c1nc(C)c(-c2cccnc2)n1O	75 to 80 °C
COC(=O)CC1NC(=O)C(Cc2ccccc2)NC1=O (stereo not given)	217 to 218 °C
COC(=O)c1ccccc1-c1nn[nH]n1	132 to 135 °C

Compound	melting point
CSc1ccc(Oc2ccc(C#N)cc2)cc1	65 to 66 °C
CN1CCC(c2c[nH]c3ccc(CCS(=O)(=O)N(C)C)cc23)CC1	170 to 172 °C
O=c1[nH]c(-n2cccn2)nc2ccccc12	148 to 150 °C
COc1ccc2ccc(O)c(Cl)c2c1	76 to 78 °C
COc1c(-c2ccc3cc(NS(C)(=O)=O)ccc3c2)cc(N2CCNC2=O)cc1C(C)(C)C	284 to 286 °C
COC(=O)c1ccc(C(=O)NS(=O)(=O)c2ccc(OC(F)(F)F)cc2)cn1	221 to 223 °C
O=[N+]([O-])c1ccc(Sc2ccccc2)cc1OCc1ccccc1	77 to 79 °C
Oc1nc2cc(F)c(F)cc2nc1O	> 310 °C
O=CNc1ccccc1CCc1ccccn1	78 to 81 °C
CN(C)C1=Nc2ccccc2C(O)(c2ccccc2)C1(C)C (stereo not given)	170 to 173 °C
O=C(Cn1cnnn1)OCc1ccccc1	69 to 72 °C
COc1ccc(-c2ccc3c(c2)C2(CO3)C(=O)N(Cc3ccc(Cl)s3)c3ccccc32)cn1 (stereo not given)	60 to 62 °C
COC(=O)C(C)(C)Cc1ccc(CC(C)(C)C(=O)OC)cc1	74 to 76 °C
O=C(O)CCc1cnoc1-c1ccc(F)c(Cl)c1	118 to 119 °C
CO[C@@H]1CNCC[C@@H]1NC(=O)c1cc(Cl)c(N)c2c1OC(C)(C)C2 (relative stereo)	179 °C
O=c1nc(-c2ccccn2)sc2ccc(OCCCO)cc12	197 to 198 °C
CCn1cnc2c(Nc3cccc(N)c3)nc(N[C@H]3CC[C@H](O)CC3)nc21	149 to 151 °C
O=C(O)CCCCCOc1cccc(CCCCCCOc2ccc3c(c2CCCc2ccccc2)OCCC3=O)c1CCC(=O)O	97 to 98 °C
Oc1ccc(-c2c3ccccc3cc3sc4cc(O)ccc4c23)cc1	197 to 199 °C
CC(C)OC1CCC(=O)N1S(=O)(=O)C=Cc1ccccc1 (stereo not given)	92 to 94 °C
CNC(=O)c1cc(C(=O)c2ccccc2)ccc1[N+](=O)[O-]	138 °C
COCCN(CCOC)c1ccccc1NC(N)=S	118 to 119 °C
O=C1NC(=O)c2c1c(I)cc1[nH]c3ccc(O)cc3c21	> 350 °C
O=C(O)C1CCC2CCCCC2N1 (stereo not given)	173 to 176 °C
COC(=O)C1(C)CCc2c(C)c(O)c(C)c(C)c2O1 (stereo not given)	132 to 135 °C
